Experimental data published in ChEMBL document CHEMBL4706752 (ACS Med Chem Lett, 2021).
Active and inactive are the calls of the source. No cut-off for these calls is given here.

What was measured:
Mus musculus [1] = assay: Antiinflammatory activity in DBA/1J mouse model of collagen-induced arthritis assessed as reduction in clinical score at 20 mg/kg, po dosed twice daily for 21 days measured on day 51; type: functional; conditions: 504 h, time 21 day
[2] = AUC in Sprague-Dawley rat at 2 mg/kg, iv; type: ADME, organism-based; parameters: dose 2 mg/kg; conditions: in vivo
Mus musculus [3] = assay: Antiinflammatory activity in DBA/1J mouse model of collagen-induced arthritis assessed as reduction in plasma IL-6 level at 10 mg/kg, po dosed twice daily for 21 days (reference value: 80 +/- 6 pg/ml); type: functional; conditions: time 21 day
Mus musculus [4] = assay: Antiinflammatory activity in DBA/1J mouse model of collagen-induced arthritis assessed as reduction in plasma IL-6 level at 5 mg/kg, po dosed twice daily for 21 days (reference value: 80 +/- 6 pg/ml); type: functional; conditions: time 21 day
Mus musculus [5] = assay: Antiinflammatory activity in DBA/1J mouse model of collagen-induced arthritis assessed as reduction in clinical score at 5 mg/kg, po dosed twice daily for 21 days measured on day 51; type: functional; conditions: 504 h, time 21 day
[6] = Half life in dog at 1 mg/kg, iv; type: ADME, organism-based, Canis lupus familiaris; conditions: in vivo
Mus musculus [7] = assay: Antiinflammatory activity in DBA/1J mouse model of collagen-induced arthritis assessed as reduction in Anti-CII Ab level at 5 to 20 mg/kg, po dosed twice daily for 21 days; type: functional, organism-based; conditions: dose 5-20 mg/kg, time 21.0 day
[8] = Oral bioavailability in Balb/c mouse at 4 mg/kg; type: ADME, organism-based; conditions: in vivo
[9] = Unbound volume of distribution at steady state in dog at 1 mg/kg, iv; type: ADME, organism-based, Canis lupus familiaris; conditions: in vivo
Mus musculus [10] = assay: Suppression of ear thickness in C57BL/6 mouse model of IL-23 induced acanthosis model of psoriasis assessed as AUC of %change in ear thickness at 10 mg/kg, po BID for 10 days measured every other day; type: functional; conditions: time 10 day
[11] = Metabolic stability in mouse liver microsomes assessed as compound remaining after 10 mins; type: ADME, Microsome; conditions: read-out: Stabilty
[12] = Decrease in IL-6 gene expression in C57BL/6 mouse model of IL-23 induced acanthosis model of psoriasis at 20 mg/kg, po BID for 10 days by RT-PCR analysis; type: functional; conditions: C57BL/6, po, 240 h, time 10 day
[13] = AUC in dog at 1 mg/kg, iv; type: ADME, organism-based, Canis lupus familiaris; parameters: dose 1 mg/kg; conditions: in vivo
[14] = target: T1, Oxysterols receptor LXR-alpha (Homo sapiens, UniProt Q13133); assay: Inhibition of LXRalpha (unknown origin)
T1 sequence (Q13133 whole entry): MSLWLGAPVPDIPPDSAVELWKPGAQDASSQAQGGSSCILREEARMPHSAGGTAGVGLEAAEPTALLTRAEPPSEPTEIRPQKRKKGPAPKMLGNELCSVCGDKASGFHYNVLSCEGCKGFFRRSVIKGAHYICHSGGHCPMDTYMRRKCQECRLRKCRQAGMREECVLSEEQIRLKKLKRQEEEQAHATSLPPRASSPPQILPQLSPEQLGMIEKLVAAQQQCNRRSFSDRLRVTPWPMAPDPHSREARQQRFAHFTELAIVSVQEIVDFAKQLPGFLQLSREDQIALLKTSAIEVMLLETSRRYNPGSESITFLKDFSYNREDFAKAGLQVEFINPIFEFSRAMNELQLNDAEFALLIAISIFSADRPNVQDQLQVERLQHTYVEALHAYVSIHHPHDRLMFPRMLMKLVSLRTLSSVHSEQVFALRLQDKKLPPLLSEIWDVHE

[15] = Clearance in Balb/c mouse at 2 mg/kg, iv; type: ADME, organism-based; conditions: in vivo
[16] = Clearance in Sprague-Dawley rat at 2 mg/kg, iv; type: ADME, organism-based; conditions: in vivo
Mus musculus [17] = assay: Antiinflammatory activity in DBA/1J mouse model of collagen-induced arthritis assessed as reduction in histological score at 5 mg/kg, po dosed twice daily for 21 days; type: functional; conditions: 504 h, time 21 day
Mus musculus [18] = assay: Antiinflammatory activity in DBA/1J mouse model of collagen-induced arthritis assessed as reduction in histological score at 20 mg/kg, po dosed twice daily for 21 days; type: functional; conditions: 504 h, time 21 day
Cytochrome P450 2C8 = target: T2, Cytochrome P450 2C8 (Homo sapiens, UniProt P10632); assay: Inhibition of CYP2C8 (unknown origin); type: ADME
T2 sequence (P10632 whole entry): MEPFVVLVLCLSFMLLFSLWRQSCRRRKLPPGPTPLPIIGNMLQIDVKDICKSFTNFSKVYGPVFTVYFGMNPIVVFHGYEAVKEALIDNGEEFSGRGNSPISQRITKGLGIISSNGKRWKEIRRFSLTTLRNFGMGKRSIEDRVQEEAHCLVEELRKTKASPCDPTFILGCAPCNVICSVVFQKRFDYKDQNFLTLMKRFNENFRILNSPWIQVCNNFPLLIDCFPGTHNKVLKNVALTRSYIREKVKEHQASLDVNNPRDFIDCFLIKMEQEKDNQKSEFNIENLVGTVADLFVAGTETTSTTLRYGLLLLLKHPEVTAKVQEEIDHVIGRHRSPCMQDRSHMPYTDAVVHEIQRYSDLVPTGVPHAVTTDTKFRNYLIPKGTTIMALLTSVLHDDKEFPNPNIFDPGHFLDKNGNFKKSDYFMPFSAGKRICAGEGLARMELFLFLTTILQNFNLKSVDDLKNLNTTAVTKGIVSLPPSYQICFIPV

[19] = target: T3, Nuclear receptor subfamily 1 group I member 2 (Homo sapiens, UniProt O75469); assay: Inhibition of PXR (unknown origin)
T3 sequence (O75469 whole entry): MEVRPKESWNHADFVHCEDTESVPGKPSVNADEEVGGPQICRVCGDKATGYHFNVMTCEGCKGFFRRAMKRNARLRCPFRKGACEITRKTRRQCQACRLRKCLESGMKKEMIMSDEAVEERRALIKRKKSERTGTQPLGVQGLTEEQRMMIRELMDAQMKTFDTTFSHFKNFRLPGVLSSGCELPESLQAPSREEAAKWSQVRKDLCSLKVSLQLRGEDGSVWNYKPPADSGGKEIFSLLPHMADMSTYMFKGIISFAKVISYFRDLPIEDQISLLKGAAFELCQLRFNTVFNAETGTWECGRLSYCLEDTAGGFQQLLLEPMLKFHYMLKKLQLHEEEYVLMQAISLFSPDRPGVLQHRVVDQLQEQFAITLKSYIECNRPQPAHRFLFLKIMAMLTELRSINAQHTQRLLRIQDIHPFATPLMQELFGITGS

Cytochrome P450 2C19 = Cytochrome P450 2C19 (Homo sapiens, UniProt P33261); assay: Inhibition of CYP2C19 (unknown origin); type: ADME
Cytochrome P450 2C19, sequence (P33261 whole entry): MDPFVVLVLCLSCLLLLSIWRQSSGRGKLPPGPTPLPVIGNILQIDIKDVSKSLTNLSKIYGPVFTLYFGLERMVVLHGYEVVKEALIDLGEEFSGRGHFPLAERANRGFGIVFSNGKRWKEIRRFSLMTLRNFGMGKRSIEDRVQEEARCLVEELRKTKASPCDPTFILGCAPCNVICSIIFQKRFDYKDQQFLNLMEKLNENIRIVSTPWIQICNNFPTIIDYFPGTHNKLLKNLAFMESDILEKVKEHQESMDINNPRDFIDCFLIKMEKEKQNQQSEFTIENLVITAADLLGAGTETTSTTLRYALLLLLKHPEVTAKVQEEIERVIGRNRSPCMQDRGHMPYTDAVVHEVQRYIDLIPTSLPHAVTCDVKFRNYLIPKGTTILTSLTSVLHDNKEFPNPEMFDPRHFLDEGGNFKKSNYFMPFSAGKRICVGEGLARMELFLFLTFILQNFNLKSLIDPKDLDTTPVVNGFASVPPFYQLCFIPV

[20] = Half life in Sprague-Dawley rat at 2 mg/kg, iv; type: ADME, organism-based; conditions: in vivo
Mus musculus [21] = assay: Suppression of ear thickness in C57BL/6 mouse model of IL-23 induced acanthosis model of psoriasis assessed as AUC of %change in ear thickness at 20 mg/kg, po BID for 10 days measured every other day; type: functional; conditions: time 10 day

## C[C@@](O)(CS(C)(=O)=O)C(=O)N[C@@H]1CC[C@@]2(S(=O)(=O)c3ccc(F)cc3)c3ccc(C(F)(C(F)(F)F)C(F)(F)F)nc3CC[C@@H]12
Mus musculus [1]
  inhibition in vivo at 20 mg/kg: 78%
[2]
  AUC: 26.3 µM·h
Mus musculus [3]
  Activity: 19 pg/mL
Mus musculus [4]
  Activity: 26 pg/mL
Mus musculus [5]
  inhibition in vivo at 5 mg/kg: 48%
[6]
  half-life: 67 h
Mus musculus [7]
  Activity: Active
[8]
  bioavailability: 101%
[9]
  fVdss: 1.3 L/kg
Mus musculus [10]
  Activity: 66.5%
[11]
  remaining at 10 min: 98%
[12]
  inhibition in vivo at 20 mg/kg: 77.4%
[13]
  AUC: 114 µM·h
[14]
  EC50: > 10 µM
[15]
  clearance: 2.1 mL/min/kg
[16]
  clearance: 1.9 mL/min/kg
Mus musculus [17]
  inhibition in vivo at 5 mg/kg: 59%
Mus musculus [18]
  inhibition in vivo at 20 mg/kg: 55%
Cytochrome P450 2C8
  IC50: 7.6 µM
[19]
  EC50: > 10 µM
Cytochrome P450 2C19
  IC50: 19 µM
[20]
  half-life: 13 h
Mus musculus [21]
  Activity: 77.2%
